Source: patent US20260284214A1, “EXATECAN DERIVATIVE AND ANTIBODY-DRUG CONJUGATE THEREOF” (priority 2023, published 2026)
Where two headings read alike, the source gives them in different places.

Assays:
[1] = Metabolism stability test in liver microsomes; type: in vitro ADME; settings: human liver microsomes; for CLint scaled / half-life / microsomal CLint: pH 7.4; for microsomal CLint: read-out: CLint(mic)
Method: The experiment was intended to detect metabolic stabilities of the compounds in the present disclosure in human liver microsomes.
• Human Liver Microsomes (Corning, Cat No. 452117)
Experimental method: each incubation system contained a phosphate buffer solution (PBS, pH 7.4), a liver microsomal protein, a to-be-tested sample (acetonitrile solution) and NADPH, incubated in water bath at 37° C., and the same volume of cold acetonitrile (comprising an internal standard) was added 0, 5, 15, 30, 45 and 60 minutes after reaction respectively to terminate the reaction. The sample solution was centrifuged, 80 μL of the supernatant was taken and 240 μL of ultrapure water was added, and the remaining amount of the prototype substrate was detected by LC-MS/MS method. The negative control was incubated with a human liver microsome NCF group (without NADPH).

hERG potassium channel = hERG potassium channel (Homo sapiens, UniProt Q12809); test: hERG experiment, manual patch clamp; type: cell-based; settings: HEK-293 cells stably expressing hERG; for inhibition at 10 µM: human, read-out: hERG current inhibition rate % (Mean ± SE, n = 2)
hERG potassium channel, sequence (Q12809 whole entry): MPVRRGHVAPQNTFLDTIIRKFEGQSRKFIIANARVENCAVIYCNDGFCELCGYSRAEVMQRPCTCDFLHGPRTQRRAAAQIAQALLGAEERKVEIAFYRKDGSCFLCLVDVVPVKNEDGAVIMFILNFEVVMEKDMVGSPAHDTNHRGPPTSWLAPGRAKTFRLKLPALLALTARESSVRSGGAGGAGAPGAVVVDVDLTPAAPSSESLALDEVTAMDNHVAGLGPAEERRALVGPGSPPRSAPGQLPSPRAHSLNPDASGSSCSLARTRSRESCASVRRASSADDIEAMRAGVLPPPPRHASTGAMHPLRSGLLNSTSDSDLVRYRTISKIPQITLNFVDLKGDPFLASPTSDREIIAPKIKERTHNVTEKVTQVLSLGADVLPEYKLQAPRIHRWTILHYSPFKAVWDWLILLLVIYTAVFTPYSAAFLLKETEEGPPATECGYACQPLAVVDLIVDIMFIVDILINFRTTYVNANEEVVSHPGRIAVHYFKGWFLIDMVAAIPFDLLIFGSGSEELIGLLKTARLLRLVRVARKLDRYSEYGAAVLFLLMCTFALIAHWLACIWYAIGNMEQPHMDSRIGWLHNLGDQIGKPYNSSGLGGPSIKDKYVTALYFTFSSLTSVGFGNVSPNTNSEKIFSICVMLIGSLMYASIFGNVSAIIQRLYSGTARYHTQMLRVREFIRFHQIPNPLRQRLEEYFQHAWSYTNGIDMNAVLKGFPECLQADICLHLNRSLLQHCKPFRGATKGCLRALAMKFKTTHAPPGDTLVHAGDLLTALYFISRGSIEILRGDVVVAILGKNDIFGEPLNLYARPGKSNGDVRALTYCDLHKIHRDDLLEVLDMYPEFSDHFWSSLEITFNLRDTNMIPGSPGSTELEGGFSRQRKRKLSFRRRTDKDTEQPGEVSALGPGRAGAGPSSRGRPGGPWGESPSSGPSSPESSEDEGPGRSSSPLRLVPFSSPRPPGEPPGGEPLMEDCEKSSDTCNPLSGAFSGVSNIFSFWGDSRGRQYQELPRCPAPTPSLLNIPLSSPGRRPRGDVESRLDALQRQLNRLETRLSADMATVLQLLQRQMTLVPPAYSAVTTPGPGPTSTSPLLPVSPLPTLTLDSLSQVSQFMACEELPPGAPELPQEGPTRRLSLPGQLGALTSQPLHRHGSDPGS
Method: Inhibitory effects of the compound of Example 2, the compound of Example 3 and Dxd on an hERG potassium channel were studied by a manual patch clamp technique (a gold standard of hERG safety evaluation), and the risk of ventricular repolarization toxicity caused was evaluated.
The weighed test sample was prepared into a 10 mM stock solution with DMSO, and then the stock solution of the test object was diluted into 3.33 mM intermediate dilution with DMSO. Then, 30 μL of the dilution was added into 10 mL of extracellular fluid to prepare 10 μM working solution, it was ensured that a DMSO content was 0.3%, then 50 μL of F68 was added to the extracellular fluid to enhance a solubility of the test object, and an F68 concentration was 0.5%. Solutions at all concentrations were subjected to ultrasound treatment for 20 minutes. The solubility of the sample was visually observed, and there was no visible precipitation in the 10 μM to-be-tested solution of the test object.
An HEK-293 cell line stably expressing the hERG potassium channel was adopted, and hERG potassium channel cells were purchased from Creacell Company (article number: A-0320). Cell culture method:
The HEK-293 cell line stably expressing the hERG potassium channel was cultured in a DMEM culture medium containing 10% fetal bovine serum and 0.8 mg/mL G418 at a culture temperature of 37° C. under a carbon dioxide concentration of 5%.
Cell passage: the old culture medium was removed, and the cells were washed once with PBS, then 1 mL of TrypLE™ Express solution was added, and the mixture was incubated at 37° C. for about 0.5 minutes. When the cells were separated from a dish bottom, about 5 mL of complete culture medium preheated at 37° C. was added. A cell suspension was gently blown with a straw to separate the aggregated cells. The cell suspension was transferred to a sterile centrifuge tube and centrifuged at 1000 rpm for 5 minutes to collect the cells. […]
An inhibitory effect of the test object on the hERG channel was detected by the manual patch clamp technique.

[2] = In-vivo pharmacokinetics of compounds in SD rats; settings: intravenous; for clearance / half-life / AUC(0-t) at 8 h / Vd: rat, plasma; for AUC(0-t) at 8 h: read-out: AUC0-8 h; for Vd: read-out: Vz
Method: SD rats were taken as test animals to study in-vivo pharmacokinetics behaviors after injection administration of the compounds of the present disclosure to male and female SD rats at dosages of 1 mg/kg and 3 mg/kg.
• Species: male and female SD rats (2 female rats and 2 male rats/group) • Grade: SPF grade • Weight: about 200 g • Source: Hunan SJA Laboratory Animal Co., Ltd.
Male and female SD rats were injected with the test sample solution, and Compound 2 of the example and the Dxd were given in a dosage of 1 mg/kg and a dosage volume of 4 mL/kg. Compound 3 of the example and the Dxd were given in a dosage of 3 mg/kg and a dosage volume of 5 mL/kg.
Preparation of test sample solution: the test sample was dissolved with a solvent (10% DMSO-60% PEG400-30% (20% HP-β-CD-water)), and DMSO, PEG 400 and 20% HP-β-CD-water were added sequentially during preparation.
0 before administration, and 5 minutes, 15 minutes, 0.5 hours, 1 hour, 2 hours, 3 hours, 5 hours and 8 hours after administration.
0.2 mL of blood was collected and placed into an EDTA-2K anticoagulant tube. The anticoagulant tube was turned upside down gently to fully mix the anticoagulant (EDTA-2K) with the blood, and then immediately placed into wet ice, and plasma was centrifuged for separation within 1 hour after blood collection at 4° C. and 6800 g for 6 minutes. After centrifugation, the plasma was separated and stored in an ultra-low-temperature refrigerator as soon as possible until sample analysis.

Compound	CLint scaled [1] [mL/min/kg]	half-life ([1]; NADPH, 37° C.) [h]	microsomal CLint [1] [µL/min/mg]	inhibition at 10 µM (hERG potassium channel) [%]	clearance ([2]; 1 mg/kg) [mL/min/kg]	half-life ([2]; 1 mg/kg) [h]	AUC(0-t) at 8 h ([2]; 1 mg/kg) [ng·h/mL]	Vd ([2]; 1 mg/kg) [L/kg]	clearance ([2]; 3 mg/kg) [mL/min/kg]	half-life ([2]; 3 mg/kg) [h]	AUC(0-t) at 8 h ([2]; 3 mg/kg) [ng·h/mL]	Vd ([2]; 3 mg/kg) [L/kg]	CLint(liver) [1] [mL/min/kg]	CLint(mic) [1] [µL/min/mg]	T1/2 ([1]; NADPH, 37° C.) [h]	hERG current inhibition rate % (Mean ± SE, n = 2) (hERG potassium channel; 10 μM)	AUC0-8 h ([2]; 1 mg/kg) [ng·h/mL]	CL ([2]; 1 mg/kg) [mL/min/kg]	T1/2 ([2]; 1 mg/kg) [h]	Vz ([2]; 1 mg/kg) [L/kg]
CC[C@@]1(O)C(=O)OCc2c1cc1n(c2=O)Cc2c-1nc1cc(F)c(C)c3c1c2[C@@H](NC(=O)CO)CC3 [Dxd]	12.3	1.69	13.6	10.3	69.2	1.3	240	7.96	65.7	1.96	760	10.9	–	–	–	–	–	–	–	–
C#CCN(CCO)C(=O)N[C@H]1CCc2c(C)c(F)cc3nc4c(c1c23)Cn1c-4cc2c(c1=O)COC(=O)[C@]2(O)CC [Example 2]	–	–	–	–	–	–	–	–	–	–	–	–	20.0	22.2	1.04	2.89% ± 1.86%	77.9	12700	1.59	29
C=CCN(CCO)C(=O)N[C@H]1CCc2c(C)c(F)cc3nc4c(c1c23)Cn1c-4cc2c(c1=O)COC(=O)[C@]2(O)CC [Example 3, 1-allyl-3-((1S,9S)-9-ethyl-5-fluoro-9-hydroxy-4-methyl-10,13-dioxo-2,3,9,10,13,15-hexahydro-1H,12H-benzo[de]pyrano[3′,4′:6,7]indolizino[1,2-b]quinolin-1-yl)-1-(2-hydroxyethyl)urea]	23.7	0.877	26.4	15.8	–	–	–	–	124	1.73	405	18.7	–	–	–	–	–	–	–	–
